The test system of test [1] is HL-60. The test can be described thus: In vitro antiproliferative activity against HL-60 myeloid leukemia HL-60 cells in culture. It is filed as functional, cell-based. The conditions noted are these: Homo sapiens.
The test system of test [2] is HL-60. The test can be described thus: Concentration required for endonucleolytic DNA cleavage in HL-60 cells. It counts as functional, cell-based. The conditions noted are these: Homo sapiens.

Structures are written as SMILES.

In the case of `C=C1C(=O)O[C@H](CCc2ccc(OC)cc2)[C@H]1C`, in the test with HL-60 [1], the IC50 came out at 4 µM. For the same compound, the Concentration in the test on HL-60 [2] stood at 5 µM.

For the origin of these results see ChEMBL document CHEMBL1136051, “Synthesis and antiproliferative activity of a new compound containing an alpha-methylene-gamma-lactone group” (J Med Chem, 2002).
